# Values quoted from earlier work, collected in patent US9200991B2, “Sorptive extraction layer for immobilized liquid extraction” (Tecan Trading AG, priority 2013, dated 2015).
structure (smiles),measurement,value
CC(C)Cc1ccc(C(C)C(=O)O)cc1 (stereo not shown) [Ibuprofen],reported logP,approximately 3.8
